# Legend:
# α3β4 nACh receptors = biological target: T1, α3β4 nACh receptors (Rattus norvegicus, UniProt P04757+P12392); experiment: whole-cell patch-clamp of transfected HEK293 cells, ganglionic α3β4 nACh receptors, 1 mM ACh; assay type: cell-based
# T1 construct: expressed in transfected cells; host or cells: HEK293 (ATCC CRL1573), transient transfection
# Protocol: Human embryonic kidney 293 (HEK293) fibroblasts (ATCC CRL1573) were cultured in minimal essential medium supplemented with 10% fetal bovine serum and 2 mM glutamine (Life Technologies, Rockville, Md.). Cells were plated on poly-D-lysine-coated 35 mm nunc dishes, transfected by the LipofectaminePLUS method (Life Technologies), and examined functionally between 18-48 h post transfection. The following receptor subunit cDNAs were used: nAChR-α3 (nicotinic acetylcholine receptor-α3; accession no. L31621), nAChR-α4 (accession no. L31620), nAChR-β2 (accession no. L31622), nAChR-β4 (accession no. U42976), 5-HT3R-A (5-HT3A receptor; accession no. M74425), NR1 (N-methyl-D-aspartate receptor 1; accession no. X63255), NR2A (accession no. X91561), and NR2B (accession no. M91562). The nAchR and NR clones were rat; the 5-HT3R-A clone was mouse. Co-transfection of enhanced green fluorescent protein (“EGFP”) (10% of total cDNA) provided a marker to identify transfected cells. Transfected cells were selected for EGFP expression and examined by voltage-clamp recording in the whole-cell configuration using an Axopatch 200B patch-clamp amplifier (Axon Instruments, Foster City, Calif.). Thin-walled borosilicate glass microelectrodes (TW150F, World Precision Instruments, Sarasota, Fla.) had resistances of 3-5 MΩ when filled with an internal solution containing (in mM): 135 CsCl, 10 CsF, 10 HEPES (N-[2-hydroxyethyl]piperazine-N′-[2-ethanesulfonic acid]), 5 EGTA (ethylene glycol-bis[β-aminoethyl ether]-N,N,N′,N′-tetraacetic acid), 1 MgCl2, 0.5 CaCl2, pH 7.2. Whole-cell capacitance and series resistance were recorded and adequately compensated using the available circuitry of the amplifier. Current responses were filtered at 1 kHz with an 8-pole Bessel filter (Cygnus Technologies, Delaware Water Gap, Pa.), digitized at 3 kHz, and stored on a Macintosh PowerPC-G3 computer using an ITC-16 interface (Instrutech, Great Neck, N.Y.) under control of the data acquisition and analysis program Synapse (Synergy Research, Gaithersburg, Md.). […] Rapid switching between inputs was achieved using a set of upstream solenoid valves (Lee Co., Westbrook, Conn.) under computer control; the solution exchange rate was ˜5 ms as measured from liquid junction currents.
# Transfected HEK293 cells expressing various receptor subunit cDNAs were examined by whole-cell patch-clamp recording with fast perfusion of agonist and drug solutions. […] In FIG. 1A, open bars depict the timing of ACh application; filled bars depict the timing of co-application of 20 μM IBO or 20 μM 18MC; and inhibition was measured relative to control at the end of the drug application (indicated by arrows). […]
# NR1/2B receptors = biological target: T2, NR1/2B receptors (Rattus norvegicus, UniProt P35439+Q00960); experiment: whole-cell patch-clamp of transfected HEK293 cells, NR1/2B, 100 μM glutamate plus 10 μM glycine; assay type: cell-based
# T2 construct: expressed in transfected cells; host or cells: HEK293 (ATCC CRL1573), transient transfection
# T2 sequence (Q00960 27-1482, other chains not shown): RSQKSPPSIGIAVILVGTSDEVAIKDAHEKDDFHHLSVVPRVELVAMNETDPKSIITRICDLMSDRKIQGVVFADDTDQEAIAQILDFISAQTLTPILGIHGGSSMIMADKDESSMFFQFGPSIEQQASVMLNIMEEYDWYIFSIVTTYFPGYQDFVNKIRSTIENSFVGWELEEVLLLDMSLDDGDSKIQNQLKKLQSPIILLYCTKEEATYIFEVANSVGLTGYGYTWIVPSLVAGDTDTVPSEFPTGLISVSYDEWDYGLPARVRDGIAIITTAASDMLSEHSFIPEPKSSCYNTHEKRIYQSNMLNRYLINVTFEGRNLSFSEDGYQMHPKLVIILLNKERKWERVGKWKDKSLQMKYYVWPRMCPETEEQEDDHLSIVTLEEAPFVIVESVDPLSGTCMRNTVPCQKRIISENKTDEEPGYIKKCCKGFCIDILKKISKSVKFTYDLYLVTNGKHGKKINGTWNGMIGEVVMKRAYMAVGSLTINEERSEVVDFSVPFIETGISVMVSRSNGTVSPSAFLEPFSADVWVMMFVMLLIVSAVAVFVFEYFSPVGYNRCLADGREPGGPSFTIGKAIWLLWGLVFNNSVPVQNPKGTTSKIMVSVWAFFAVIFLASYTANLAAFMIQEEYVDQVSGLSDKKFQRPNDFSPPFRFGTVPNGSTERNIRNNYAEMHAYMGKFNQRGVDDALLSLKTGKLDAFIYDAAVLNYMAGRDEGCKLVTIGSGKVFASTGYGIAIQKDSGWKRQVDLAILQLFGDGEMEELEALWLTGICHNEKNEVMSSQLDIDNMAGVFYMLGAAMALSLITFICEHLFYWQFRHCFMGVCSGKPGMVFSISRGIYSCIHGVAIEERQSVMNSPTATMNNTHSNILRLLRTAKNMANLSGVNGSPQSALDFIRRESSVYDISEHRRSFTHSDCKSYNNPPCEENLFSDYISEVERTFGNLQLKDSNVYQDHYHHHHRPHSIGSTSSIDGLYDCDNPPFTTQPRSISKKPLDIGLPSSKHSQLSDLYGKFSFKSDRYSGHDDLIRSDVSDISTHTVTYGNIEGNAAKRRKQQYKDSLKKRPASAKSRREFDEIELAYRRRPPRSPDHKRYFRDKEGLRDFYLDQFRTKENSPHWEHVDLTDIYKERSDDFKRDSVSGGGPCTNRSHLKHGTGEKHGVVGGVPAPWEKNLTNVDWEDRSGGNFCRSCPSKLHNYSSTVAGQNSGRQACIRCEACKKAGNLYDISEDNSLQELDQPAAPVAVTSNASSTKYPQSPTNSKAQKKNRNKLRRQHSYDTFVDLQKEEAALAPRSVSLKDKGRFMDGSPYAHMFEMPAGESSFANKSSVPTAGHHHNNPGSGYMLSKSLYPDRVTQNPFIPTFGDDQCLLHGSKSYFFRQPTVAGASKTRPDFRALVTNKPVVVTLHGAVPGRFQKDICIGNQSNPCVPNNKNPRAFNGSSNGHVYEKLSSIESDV
# Protocol: Human embryonic kidney 293 (HEK293) fibroblasts (ATCC CRL1573) were cultured in minimal essential medium supplemented with 10% fetal bovine serum and 2 mM glutamine (Life Technologies, Rockville, Md.). Cells were plated on poly-D-lysine-coated 35 mm nunc dishes, transfected by the LipofectaminePLUS method (Life Technologies), and examined functionally between 18-48 h post transfection. The following receptor subunit cDNAs were used: nAChR-α3 (nicotinic acetylcholine receptor-α3; accession no. L31621), nAChR-α4 (accession no. L31620), nAChR-β2 (accession no. L31622), nAChR-β4 (accession no. U42976), 5-HT3R-A (5-HT3A receptor; accession no. M74425), NR1 (N-methyl-D-aspartate receptor 1; accession no. X63255), NR2A (accession no. X91561), and NR2B (accession no. M91562). The nAchR and NR clones were rat; the 5-HT3R-A clone was mouse. Co-transfection of enhanced green fluorescent protein (“EGFP”) (10% of total cDNA) provided a marker to identify transfected cells. Transfected cells were selected for EGFP expression and examined by voltage-clamp recording in the whole-cell configuration using an Axopatch 200B patch-clamp amplifier (Axon Instruments, Foster City, Calif.). Thin-walled borosilicate glass microelectrodes (TW150F, World Precision Instruments, Sarasota, Fla.) had resistances of 3-5 MΩ when filled with an internal solution containing (in mM): 135 CsCl, 10 CsF, 10 HEPES (N-[2-hydroxyethyl]piperazine-N′-[2-ethanesulfonic acid]), 5 EGTA (ethylene glycol-bis[β-aminoethyl ether]-N,N,N′,N′-tetraacetic acid), 1 MgCl2, 0.5 CaCl2, pH 7.2. Whole-cell capacitance and series resistance were recorded and adequately compensated using the available circuitry of the amplifier. Current responses were filtered at 1 kHz with an 8-pole Bessel filter (Cygnus Technologies, Delaware Water Gap, Pa.), digitized at 3 kHz, and stored on a Macintosh PowerPC-G3 computer using an ITC-16 interface (Instrutech, Great Neck, N.Y.) under control of the data acquisition and analysis program Synapse (Synergy Research, Gaithersburg, Md.). Cells were continuously superfused with extracellular solution containing (in mM): 150 NaCl, 3 KCl, 5 HEPES, 1 MgCl2, 1.8 CaCl2, 10 glucose, and 0.1 mg/ml phenol red, pH 7.3 (MgCl2 was omitted from all solutions used for the study of NMDA receptors). […] Control, agonist, and drug solutions were applied to individual cells by rapid perfusion. Solutions were driven by a syringe pump through a flowpipe having 4 inputs that converge at a single common output of approximately 100 μm diameter. Rapid switching between inputs was achieved using a set of upstream solenoid valves (Lee Co., Westbrook, Conn.) under computer control; the solution exchange rate was ˜5 ms as measured from liquid junction currents.
# To study these, transfected HEK293 cells expressing NR1/2A or NR1/2B receptors were voltage-clamped to −70 mV and stimulated with 100 μM glutamate plus 10 μM glycine at 30 s intervals. […] In FIGS. 3A and 3B, open bars depict the timing of agonist application, filled bars depict the timing of co-application of 20 μM IBO or 20 μM 18MC, and inhibition was measured relative to control at the end of the drug application (indicated by arrows).
# T1 sequence (P04757 26-499): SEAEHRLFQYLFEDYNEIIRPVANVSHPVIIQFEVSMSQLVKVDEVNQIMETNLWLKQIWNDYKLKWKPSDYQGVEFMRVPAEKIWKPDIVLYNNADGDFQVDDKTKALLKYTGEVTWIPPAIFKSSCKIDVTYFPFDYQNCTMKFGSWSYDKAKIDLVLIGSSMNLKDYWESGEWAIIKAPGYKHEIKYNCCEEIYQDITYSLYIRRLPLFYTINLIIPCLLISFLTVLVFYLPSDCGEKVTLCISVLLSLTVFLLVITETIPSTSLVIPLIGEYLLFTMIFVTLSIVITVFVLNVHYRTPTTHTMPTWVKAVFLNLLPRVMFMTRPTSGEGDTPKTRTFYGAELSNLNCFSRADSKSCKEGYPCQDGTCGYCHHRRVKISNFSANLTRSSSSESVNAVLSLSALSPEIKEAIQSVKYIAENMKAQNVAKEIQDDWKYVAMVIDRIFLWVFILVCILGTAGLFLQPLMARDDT
# T1 sequence (P12392 21-495): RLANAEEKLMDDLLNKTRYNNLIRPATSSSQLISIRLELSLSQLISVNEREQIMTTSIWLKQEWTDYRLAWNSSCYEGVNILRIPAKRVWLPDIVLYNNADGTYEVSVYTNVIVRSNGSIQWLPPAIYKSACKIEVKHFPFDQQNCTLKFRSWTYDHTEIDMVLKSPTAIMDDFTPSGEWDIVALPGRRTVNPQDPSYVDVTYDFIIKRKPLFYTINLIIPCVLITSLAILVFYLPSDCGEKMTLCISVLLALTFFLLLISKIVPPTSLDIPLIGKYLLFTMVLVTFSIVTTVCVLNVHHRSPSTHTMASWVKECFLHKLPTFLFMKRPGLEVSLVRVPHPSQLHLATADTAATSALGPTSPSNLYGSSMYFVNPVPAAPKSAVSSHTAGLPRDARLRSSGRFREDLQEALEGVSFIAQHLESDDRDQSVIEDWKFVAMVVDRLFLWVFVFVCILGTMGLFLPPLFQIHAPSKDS
structure (smiles),measurement,setting,value
COCC[C@H]1CC2CN3CCc4c([nH]c5ccccc45)[C@](C(=O)OC)(C2)[C@H]13 [18-methoxycoronaridine],response to drug applied alone (agonist activity),"α3β4 nACh receptors; 20 μM drug alone, -70 mV",did not produce any response
same,inhibition of ACh-evoked responses on co-application,"α3β4 nACh receptors; 20 μM drug with 1 mM ACh, N=15, FIG. 1A",nearly abolished
same,response to drug applied alone (agonist activity),NR1/2B receptors; 20 μM drug alone,did not produce any response
same,inhibition of agonist-evoked response,"NR1/2B receptors; concentrations up to 20 μM, N=5, FIG. 3B",failed to inhibit

# Source: US6780871B2, “Methods and compositions for treating addiction disorders” (Albany Medical College, priority 2001, dated 2004)
